Where “and” joins values, the source holds several entries; their conditions need not be identical. Identical values can stand only once.
Tests used:
Assay type in all cases: biochemical, rice (Oryza sativa var. Kinmaze)
[1] = target: T1, GST fusion R172S mutant ALS protein (Oryza sativa subsp. japonica, UniProt Q6K2E8, R172S); test: Herbicide sensitivity of ALS protein expressed in E. coli (crude enzyme solution), R172S; conditions: for RS ratio: R172S mutant vs wild type
T1 construct: an expression vector having the full-length wild type ALS cDNA incorporated into the Eco RI site of pGEX-2T; made in house; host or cells: E. coli JM109, pGEX-2T(ALS R172S mutant); crude supernatant
Method: (§1) ALS activity resulting from the mutant ALS protein contained in the eluted fractions apportioned into each test tube for apportioning was measured as follows. A reaction solution to be used in a measurement reaction was prepared by mixing an eluted fraction to be measured with a solution comprising 20 mM sodium pyruvate, 0.5 mM TPP, 0.5 mM MgCl2, 10 μM FAD and 20 mM potassium phosphate buffer (pH 7.5). One ml of this reaction solution was used. After the eluted fraction to be measured was added, the measurement reaction was performed at 30° C. for 40 to 60 minutes. Then, the reaction was stopped by addition of 0.1 ml of 6N sulfuric acid (or 0.25 N sodium hydroxide).
(§2) After the reaction was stopped, the reaction solution was incubated at 60° C. for 10 minutes, thereby converting acetolactate contained in the reaction solution to acetoin.
(§3) Then, to quantify acetoin contained in the reaction solution, 1 ml of 0.5% (w/v) creatine and 1 ml of 5% (w/v) α-naphthol dissolved in 2.5 N sodium hydroxide was added to the reaction solution, followed by incubation at 37° C. for 10 minutes. Acetoin was then quantified by color comparison of the absorbance (at 525 nm) of the reaction solution, thereby evaluating ALS activity. In addition, since the reaction solution contained a small amount of sodium pyruvate, reaction time 0 was used as control.
(§4) E. coli transformed with pGEX-2T(ALS-wild) constructed in Example 3(5), E. coli transformed with pGEX-2T(ALS-W548L mutant) constructed in Example 5, E. coli transformed with pGEX-2T(ALS-S627I mutant) constructed in Example 5, E. coli transformed with pGEX-2T(ALS P171H mutant) constructed in Example 6, E. coli transformed with pGEX-2T(ALS R172S mutant) constructed in Example 6, E. coli transformed with pGEX-2T(ALS P171H, R172S mutant) constructed in Example 7, E. coli transformed with pGEX-2T(ALS-P171H, W548L mutant) constructed in Example 8, E. coli transformed with pGEX-2T(ALS-P171H, S627I mutant) constructed in Example 8, and E. coli transformed with pGEX-2T(ALS-P171H, W548L, S627I mutant) constructed in Example 9 were respectively shake-cultured (pre-culture) at 27° C. in 2 ml of LB liquid medium containing ampicillin. These types of E. coli were respectively cultured in 250 ml of LB liquid medium containing ampicillin using 1 ml of the pre-culture solution. After culturing overnight, 1 mM IPTG was added to the media, and then culturing was performed for a further 3 to 4 hours, so that the expression of GST fusion protein was induced. In addition, the cells were stored at −80° C. after washing.
(§5) Preparation and purification of ALS from E. coli were performed by the following method. First, the pellet of the transformant E. coli stored at −80° C. was suspended in ALS extraction buffer (potassium phosphate buffer (pH 7.5) containing 30% glycerol and 0.5 mM MgCl2). Specifically, 2.5 ml of the buffer was added to the pellet obtained from 50 ml of the culture solution. The suspension was subjected to ultrasonication (Heat Systems-Ultrasonics, Sonicator W-225R, micro chip, output control 8, interval of approximately 1 second, twice (40 seconds each)), and subjected to centrifugation at 15000×g, 4° C. for 20 minutes, thereby obtaining the supernatant as a crude enzyme solution.
(§6) Herbicide sensitivity of the wild type ALS protein and that of mutant ALS protein were examined using the 9 types of crude enzyme solutions obtained in Example 10. Herbicide sensitivity test was performed according to procedures almost the same as those in Example 2. However, in this example, reaction temperature was 37° C., reaction time was 30 minutes, and 10 mM valine was added to the reaction solution to inhibit ALS activity derived from E. coli. Further, three types of herbicides, bispyribac-sodium, pyrithiobac-sodium, and pyriminobac, were used as PC herbicides; chlorsulfuron was used as a sulfonylurea herbicide; and imazaquin was used as an imidazolinon herbicide. […]

[2] = target: T2, GST fusion P171H/S627I mutant ALS protein (Oryza sativa subsp. japonica, UniProt Q6K2E8, P171H/S627I); test: Herbicide sensitivity of ALS protein expressed in E. coli (crude enzyme solution), P171H/S627I; conditions: for RS ratio/ predicted RS ratio / Predicted RS ratio: P171H/S627I mutant; for RS ratio: P171H/S627I mutant vs wild type; for Predicted RS ratio: product of RS ratios of the 1-point mutants
T2 construct: made in house; host or cells: E. coli, pGEX-2T(ALS-P171H, S627I mutant); crude supernatant
Method: as §1, §2, §3, §4, §5, §6

[3] = target: T3, GST fusion S627I mutant ALS protein (Oryza sativa subsp. japonica, UniProt Q6K2E8, S627I); test: Herbicide sensitivity of ALS protein expressed in E. coli (crude enzyme solution), S627I; conditions: for RS ratio: S627I mutant vs wild type
T3 construct: an expression vector having the full-length wild type ALS cDNA incorporated into the Eco RI site of pGEX-2T; made in house; host or cells: E. coli JM109, pGEX 2T(ALS-S627I mutant); crude supernatant
Method: as §1, §2, §3, §4, §5, §6

[4] = target: T4, GST fusion P171H mutant ALS protein (Oryza sativa subsp. japonica, UniProt Q6K2E8, P171H); test: Herbicide sensitivity of ALS protein expressed in E. coli (crude enzyme solution), P171H; conditions: for RS ratio: P171H mutant vs wild type
T4 construct: an expression vector having the full-length wild type ALS cDNA incorporated into the Eco RI site of pGEX-2T; made in house; host or cells: E. coli JM109, pGEX-2T(ALS P171H mutant); crude supernatant
Method: as §1, §2, §3, §4, §5, §6

[5] = target: T5, GST fusion P171H/W548L/S627I mutant ALS protein (Oryza sativa subsp. japonica, UniProt Q6K2E8, P171H/S627I/W548L); test: Herbicide sensitivity of ALS protein expressed in E. coli (crude enzyme solution), P171H/W548L/S627I; conditions: for RS ratio: P171H/W548L/S627I mutant vs wild type; for Predicted RS ratio / RS ratio/ predicted RS ratio: P171H/W548L/S627I mutant; for Predicted RS ratio: product of RS ratios of the 1-point mutants
T5 construct: made in house; host or cells: E. coli, pGEX-2T(ALS-P171H, W548L, S627I mutant); crude supernatant
Method: as §1, §2, §3, §4, §5, §6

[6] = read-out: inhibition % at the highest concentration among the concentrations tested

T4 sequence (Q6K2E8 44-644 P171H): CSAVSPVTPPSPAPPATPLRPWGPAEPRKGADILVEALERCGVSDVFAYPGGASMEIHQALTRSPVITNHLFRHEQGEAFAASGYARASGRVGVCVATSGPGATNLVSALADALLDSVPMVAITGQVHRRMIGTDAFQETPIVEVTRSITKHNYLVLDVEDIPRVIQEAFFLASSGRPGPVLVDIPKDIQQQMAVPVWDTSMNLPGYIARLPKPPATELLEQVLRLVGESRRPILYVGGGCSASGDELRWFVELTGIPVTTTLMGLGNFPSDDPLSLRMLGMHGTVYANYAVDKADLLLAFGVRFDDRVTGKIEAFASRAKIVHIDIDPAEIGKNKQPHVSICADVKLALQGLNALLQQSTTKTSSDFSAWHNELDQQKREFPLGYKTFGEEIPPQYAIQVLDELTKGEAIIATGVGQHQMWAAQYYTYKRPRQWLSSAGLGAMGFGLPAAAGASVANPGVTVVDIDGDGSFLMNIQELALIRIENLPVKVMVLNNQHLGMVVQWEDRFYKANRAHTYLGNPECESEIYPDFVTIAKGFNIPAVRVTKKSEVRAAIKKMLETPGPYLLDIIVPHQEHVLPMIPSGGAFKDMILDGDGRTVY
T1 sequence (Q6K2E8 44-644 R172S): as the sequence (Q6K2E8 44-644 P171H) above, with H128P, R129S counted along it
T2 sequence (Q6K2E8 44-644 P171H/S627I): as the sequence (Q6K2E8 44-644 P171H) above, with S584I counted along it
T5 sequence (Q6K2E8 44-644 P171H/W548L/S627I): as the sequence (Q6K2E8 44-644 P171H) above, with W505L, S584I counted along it
T3 sequence (Q6K2E8 44-644 S627I): as the sequence (Q6K2E8 44-644 P171H) above, with H128P, S584I counted along it

Row | Structure (SMILES) | IC50 [1] | RS ratio [1] | IC50 [2] | RS ratio/ predicted RS ratio [2] | RS ratio [2] | Predicted RS ratio [2] | IC50 [3] | IC50 [4] | RS ratio [4] | RS ratio [5] | Predicted RS ratio [5] | inhibition at 100 µM [5, 6] | RS ratio [3] | RS ratio/ predicted RS ratio [5] | inhibition at 500 µM [5, 6]
1 | CC(C)C1(C)N=C(c2nc3ccccc3cc2C(=O)O)NC1=O (stereo not drawn) [imazaquin] | 2300 nM | 0.98 and 1 | 71000 nM | 3.2 | 32 | 10 | 15000 nM | 3400 nM | 1.5 | >45 | >460 | 15% |  |  | 
2 | COc1cc(OC)nc(Oc2cccc(Oc3nc(OC)cc(OC)n3)c2C(=O)O)n1 [bispyribac-sodium] | 6.2 nM | 0.98 | 23000 nM | 10 | 3700 | 360 | 260 nM | 55 nM | 8.7 | >16000 | 190000 | 1.1% | 41 | >0.084 | 
3 | COc1nc(C)nc(NC(=O)NS(=O)(=O)c2ccccc2Cl)n1 [chlorsulfuron] | 11 nM | 0.85 | 9900 nM | 3.8 | 760 | 200 | 31 nM | 1100 nM | 85 |  | 160000 |  | 2.4 | >0.24 | 30%

Source: patent US8030547B2, “Gene coding for acetolactate synthase” (priority 2002, dated 2011)
